Results from patent US11952582B2, “Herbicide-resistance gene and application thereof in plant breeding” (priority 2017, dated 2024).
“Also recorded” adds a separate entry of the source.

Key:
[1] = test system: Arabidopsis WT (Col0), OE At, OE Pa, OE M3 lines; experiment: Arabidopsis seed germination test on herbicide-containing 1/2 MS medium; type: in vivo, Arabidopsis thaliana; details: 2 weeks
Procedure: In order to evaluate the resistance of different HPPD overexpression lines to herbicides, Arabidopsis seed germination tests were performed on media containing different concentrations of herbicides. T3 generation Arabidopsis seeds and Co10 (WT) seeds were performed steam surface sterilization (concentrated HCl: NaClO=1:5, v/v) for 3 h. Seeds of OE At (OE At #1, OE At #2), OE Pa (OE Pa #1, OE Pa #2), OE M3 (OE M3 #1, OE M3 #2) and Co10 (WT) were dibbled together in ^1/2 MS medium (0.5 x MS salt, 1% sucrose and 0.8% agar) in a 24-well plate, and the medium contained different concentrations (0, 31.25, 62.5, 125, 500 and 2000 nM) of mesotrione (Sigma Aldrich, USA) and sulcotrione (Sigma Aldrich, USA). Then, the plate dibbled seeds was placed in the dark at 4° C. for 3 d, and then transferred to a growth chamber at 22° C. (16 h light/8 h dark) for 2 weeks. Three biological replicates were performed per treatment per species. After 2 weeks, the test results were photographed.

[2] = test system: Arabidopsis WT, OE At, OE Pa, OE M3 seedlings; experiment: NBT and DAB staining of Arabidopsis seedlings (superoxide, hydrogen peroxide); type: in vivo, Arabidopsis thaliana; details: 100 nM, 72 h
Procedure: 2 week-old Arabidopsis seedlings were cultured continuously in ½ MS mediums with 100 nM mesotrione and without mesotrione for 72 h, and then transferred to 3.5 mg/mL NBT staining solution (prepared with potassium phosphate buffer containing 10 mM NaN3) and soaked in vacuum for 2 min, and then placed on a shaker overnight. The NBT-stained plants were placed in a mixed solution of acetic acid:glycerol:ethanol=1:1:3 (v/v/v) and destained at 100° C. for 5 min, then reserved in a mixed solution of glycerol:ethanol=1:4 (v/v), and was used to take photos to record the test results.
2 week-old Arabidopsis seedlings were cultured continuously in ½ MS mediums with 100 nM mesotrione and without mesotrione for 72 h, and then transferred to DAB staining solution, and soaked in vacuum for 2 min, and then placed on a shaker for 7-8 hours. The DAB-stained plants were placed in a mixed solution of acetic acid:glycerol:ethanol=1:1:3 (v/v/v) and destained at 100° C. for 5 min, then reserved in a mixed solution of glycerol: ethanol=1:4 (v/v), and was used to take photos to record the test results.
2 week-old T3 generation Arabidopsis seedlings of WT, OE At, OE Pa and OE M3 were transfered to different control (½ MS medium) and treatment medium (½ MS medium containing 100 nM mesotrione) for 72 h, and then stained with NBT and DAB to detect the accumulation of reactive oxygen species.

[3] = test system: WT and T0 OE SDM rice leaves; experiment: Malondialdehyde content in rice leaves; type: in vivo; details: 200 μM spray, 1 week
Procedure: Malondialdehyde (MDA) is an important marker of the degree of oxide film damage. The previous method (Heath and Packer, 1968) for the determination of malondialdehyde content was referred with slight modifications. 1 g of rice leaves were accurately weighed and place to a pre-cooling mortar. 10 mL of pre-cooling 10% trichloroacetic acid (TCA, v/v) was added and grind thoroughly. Then the lapping solution was transfered to a 10 mL centrifuge tube and centrifuged at 4000 rpm for 10 min (4° C.). 2 mL of supernatant was pipetted and mixed with an equal volume of 0.6% 2-Thiobarbituric acid (TBA, v/v), and incubated at 100° C. for 15 min.
Then the reaction solution was cooled at room temperature. The cooled reaction solution was centrifuged at 4000 rpm for 10 min (4° C.). The supernatant was taken and measured absorbance at wavelengths of 450 nm, 532 nm and 600 nm using ultraviolet spectrophotometers, respectively. Each sample was repeated 3 times. The unit of MDA content is nmol g^−1 FW.

[4] = test system: WT (William 82), OE GmHPPD and OE PaHPPD-SDM T1 soybean plants; experiment: Soybean resistance to herbicide at whole plant level (spraying); type: in vivo; details: 20 μM sprayed twice
Procedure: 20 μM mesotrione (prepared with 0.1% Tween-20) and 0.1% Tween-20 were spray to 4 week-old transgenic T1 generation OE SDMHPPD, T1 generation OE GmHPPD and WT soybean which were grown in an artificial climate chamber (27° C., […], light/dark) for the first time. A second spray was applied after 1 week. Then the phenotype of the plants was observed very day, and the experimental result was recorded by taking photos 2 weeks after the treatment.

[5] = test system: GmHPPD, HST, HPT, MPQMT and TC gene expression in soybean seedlings; experiment: qPCR of HPPD and tocopherol biosynthesis genes in soybean after herbicide treatment; type: in vivo; details: 20 μM, 12 h
Procedure: 4 week-old T1 generation seedlings of WT, OE GmHPPD and OE PaHPPD-SDM were used as materials to set up a treatment group and a control group, respectively, wherein the treatment group was continuously cultured in ½ MS liquid medium containing 20 μM mesotrione for 12 h. The total RNA of related materials was extracted using Super Fast Plant RNA Extraction Kit (Beijing Huayueyang Biological Technology Co., Ltd., China). The concentration of RNA samples was measured using NanoDrop ND1000 (Thermo Scientific, USA). RNA samples with an absorbance ratio (at wavelengths of 260/280 nm and 260/230 nm) of approximately 2.0 were selected. The total RNA (1,000 ng) was then used for synthesis of cDNA for reverse transcription using a cDNA synthesis kit (One-step Removal of Transcript gDNA and cDNA Synthesis Super Kit, TransGen).
As for quantitative reverse transcription PCR analysis, 3.0 μL cDNA was used as a template in a 20 μL reaction system, and gene-specific primers such as qGmHPPD F and qGmHPPD R were used for GmHPPD gene, qGmHST F and qGmHST R were used for […] gene (alkapton lycopene transferase gene), qGmHPT F and qGmHPT R were used for GmHPT or VTE2 genes, GmMPQMT F and MPQMT R were used for GmMPQMT methyl transferase genes (also known as VTE3), GmTC F and GmTC R were used for GmTC genes (also known as VTE1, tocopherol cyclase gene). These VTE (1, 2 and 3) genes were selected because they encode the key enzymes involved in tocopherol biosynthesis. Three technical repetitions were performed on the Bio-Rad CFX96 real-time system. REST software was used for statistical analysis.

PaHPPD-SDM = PaHPPD-SDM (Pseudomonas aeruginosa, UniProt Q9I576, A156V/E349K/R282S); details: higher doses in the range 0-60 of herbicide
Chain of PaHPPD-SDM (Q9I576 whole entry A156V/R282S/E349K): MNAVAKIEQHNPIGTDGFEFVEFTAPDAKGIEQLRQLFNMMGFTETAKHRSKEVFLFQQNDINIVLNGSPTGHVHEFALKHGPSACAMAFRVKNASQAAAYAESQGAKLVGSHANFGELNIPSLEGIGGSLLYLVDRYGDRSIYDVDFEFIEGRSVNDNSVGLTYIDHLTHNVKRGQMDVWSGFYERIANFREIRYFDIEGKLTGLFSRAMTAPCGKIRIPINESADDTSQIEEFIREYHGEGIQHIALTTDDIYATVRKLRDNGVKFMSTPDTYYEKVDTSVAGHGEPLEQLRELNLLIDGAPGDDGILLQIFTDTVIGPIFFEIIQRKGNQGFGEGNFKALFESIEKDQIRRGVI
Source text: Specifically, the presence of tyrosine aminotransferase in E. coli DH5a can catalyze the production of p-hydroxyphenylpyruvate (4-HPP) from tyrosine, which is used as a substrate for HPPD to produce homogentisic acid (HGA). After further oxidation and polymerization, a brown substance is produced. The addition of HPPD inhibitors will inhibit this reaction, thereby reducing the production of pigment. Therefore, the gradation of pigment can be used as an inhibition index of HPPD activity. […] Through heterologous expression of HPPD mutant genes from different species in E. coli DH5α, the resistance characteristics of E. coli DH5α-mutated gene to triketone herbicides were analyzed by detecting the absorption value of pigment at 405 nm (FIGS. 2-6, 8 and 9).
The PaHPPD mutants obtained by random mutation was cloned into E. coli cells together with wild-type PaHPPD and AtHPPD for comparation and screening.
The bacteria solution shaking cultured overnight at 37° C. was centrifuged, and 200 μL of supernatant was transferred to a sterile 96-well plate (microplate with high throughput characteristics) using a 200 μL pipette on an ultra-clean workbench. The pigment content was measured with a microtiter plate reader at a wavelength of 405 nm (OD405 nm), and the HPPD activity was evaluated according to the size of the OD value.
Then the obtained PaHPPD-SDM mutant was compared with its parental mutants (PaHPPD-M3, PaHPPD-DS18, and PaHPPD-DS73) to understand their ability of brown pigmentation in the presence of triketone herbicides at different doses (0-60 μM). The calculation formula of HPPD activity (%) is as follows: HPPD activity(%)=(Am/Ac)×100
Wherein Am refers to the average value of the absorbance at a specific herbicide dose, and Ac refers to the average value of the absorbance without the herbicide.

## CS(=O)(=O)c1ccc(C(=O)C2C(=O)CCCC2=O)c([N+](=O)[O-])c1 [mesotrione]
[1]; OE At (two lines) and WT
  concentration giving albino death / severely inhibited growth: 31.25 nM
[1]; OE Pa (two lines), T3 seeds
  concentration at which seedlings grow normally: 62.5 nM
[2]
  accumulation of superoxide and hydrogen peroxide of OE M3 compared with WT, OE At and OE Pa: significantly less; also recorded: significantly reduced
[3]
  MDA content in WT rice leaves compared with OE SDM rice leaves: significantly higher
[4]; OE PaHPPD-SDM T1 line
  phenotype after whole plant spraying: grew normally
[4]; wild-type William 82 and OE GmHPPD T1 line
  phenotype after whole plant spraying: albino symptom and growth retardation
[5]; OE GmHPPD T1 line
  expression levels of GmHPPD and MPQMT genes compared with control: decreased
  expression levels of HST, HPT and TC genes compared with control: increased
[5]; OE PaHPPD-SDM T1 line
  expression levels of GmHPPD and HPT genes compared with control: up-regulated
  expression levels of HST, MPQMT and TC genes compared with control: almost unchanged
[5]; wild-type William 82
  expression of GmHPPD, HST, HPT, MPQMT and TC genes compared with control: significantly reduced
PaHPPD-SDM
  resistance by HPPD activity (%) compared with WT, PaHPPD-M3, PaHPPD-DS18 and PaHPPD-DS73: improved the resistance
